Structures can show the parent of a compound that is named as a salt. Where two headings read alike, the source gives them in different places.

Experimental findings from patent US11492335B2, “Aryl or heteroaryl triazolone derivatives or salts thereof, or pharmaceutical compositions comprising the same” (YUHAN CORPORATION, priority 2018, dated 2022) are described below.

Holding throughout (type): biochemical
Assay [1] deals with T1, recombinant human MAO-A (monoamine oxidase-A) (Homo sapiens, UniProt P21397).
T1 construct: purchased Sigma-Aldrich
T1 sequence (P21397 1-527): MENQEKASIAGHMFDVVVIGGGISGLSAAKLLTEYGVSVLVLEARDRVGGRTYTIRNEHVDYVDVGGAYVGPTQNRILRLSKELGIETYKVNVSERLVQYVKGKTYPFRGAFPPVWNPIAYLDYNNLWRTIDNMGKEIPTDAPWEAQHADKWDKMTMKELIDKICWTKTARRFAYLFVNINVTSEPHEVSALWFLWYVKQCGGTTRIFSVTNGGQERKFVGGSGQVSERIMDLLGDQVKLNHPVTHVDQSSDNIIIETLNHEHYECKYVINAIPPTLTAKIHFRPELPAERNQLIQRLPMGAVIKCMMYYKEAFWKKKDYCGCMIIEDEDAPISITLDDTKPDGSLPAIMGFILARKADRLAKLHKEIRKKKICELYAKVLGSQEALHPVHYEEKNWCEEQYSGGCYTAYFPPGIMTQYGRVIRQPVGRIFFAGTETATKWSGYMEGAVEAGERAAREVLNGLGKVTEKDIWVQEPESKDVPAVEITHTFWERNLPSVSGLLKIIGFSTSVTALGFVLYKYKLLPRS
The assay can be described thus: Activity on recombinant human MAO-A, Amplex Red method, 0.5 mM tyramine substrate. The conditions noted are these: read-out: Inhibitory Activity (IC50, nM) MAO-A. An outline of the steps:
(§1)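 Amplex Red/HRP coupled read-out of H2O2 with 0.5 mM tyramine for MAO-A or 1 mM benzylamine for MAO-B, following a 30-min compound–enzyme preincubation at 37° C. IC50 from percent inhibition of signal rate relative to uninhibited control.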

In the next assay the target is T2, recombinant human VAP-1 (Homo sapiens, UniProt Q16853).
T2 construct: purchased R&D systems
T2 sequence (Q16853 1-763): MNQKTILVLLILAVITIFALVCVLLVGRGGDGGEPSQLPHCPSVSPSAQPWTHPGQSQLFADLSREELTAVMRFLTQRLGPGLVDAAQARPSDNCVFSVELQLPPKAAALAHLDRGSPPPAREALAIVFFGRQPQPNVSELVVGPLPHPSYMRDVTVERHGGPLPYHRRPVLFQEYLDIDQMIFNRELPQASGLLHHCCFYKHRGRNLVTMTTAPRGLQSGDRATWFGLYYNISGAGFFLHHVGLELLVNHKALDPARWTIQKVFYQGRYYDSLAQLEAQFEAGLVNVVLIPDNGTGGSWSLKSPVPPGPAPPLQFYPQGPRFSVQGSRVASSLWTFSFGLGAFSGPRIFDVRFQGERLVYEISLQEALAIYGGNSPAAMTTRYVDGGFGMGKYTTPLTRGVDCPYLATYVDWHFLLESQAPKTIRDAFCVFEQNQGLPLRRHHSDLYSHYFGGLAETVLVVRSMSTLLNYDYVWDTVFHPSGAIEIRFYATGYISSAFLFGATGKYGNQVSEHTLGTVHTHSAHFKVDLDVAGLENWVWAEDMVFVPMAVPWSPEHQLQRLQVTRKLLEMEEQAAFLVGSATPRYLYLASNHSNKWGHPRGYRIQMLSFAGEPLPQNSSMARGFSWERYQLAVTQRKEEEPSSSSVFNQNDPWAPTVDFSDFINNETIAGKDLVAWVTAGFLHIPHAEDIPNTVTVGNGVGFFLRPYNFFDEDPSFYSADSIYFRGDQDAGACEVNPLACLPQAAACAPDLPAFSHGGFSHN
As to the kind of experiment: Activity on recombinant human VAP-1, Amplex Red HRP-coupled hydrogen peroxide assay, benzylamine substrate. The conditions noted are these: recombinant human VAP-1, benzylamine substrate, read-out: Inhibitory Activity (IC50, nM) human VAP-1. An outline of the steps:
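Dose-response IC50 determined from reduction in resorufin signal rate (544/590 nm, 1-2 h), with 30 min compound preincubation at 37 °C and 1 mM benzylamine as substrate.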

Assay [2] concerns the target T3, recombinant human DAO (diamine oxidase) (Homo sapiens, UniProt P19801).
T3 construct: purchased R&D systems
T3 sequence (P19801 20-751): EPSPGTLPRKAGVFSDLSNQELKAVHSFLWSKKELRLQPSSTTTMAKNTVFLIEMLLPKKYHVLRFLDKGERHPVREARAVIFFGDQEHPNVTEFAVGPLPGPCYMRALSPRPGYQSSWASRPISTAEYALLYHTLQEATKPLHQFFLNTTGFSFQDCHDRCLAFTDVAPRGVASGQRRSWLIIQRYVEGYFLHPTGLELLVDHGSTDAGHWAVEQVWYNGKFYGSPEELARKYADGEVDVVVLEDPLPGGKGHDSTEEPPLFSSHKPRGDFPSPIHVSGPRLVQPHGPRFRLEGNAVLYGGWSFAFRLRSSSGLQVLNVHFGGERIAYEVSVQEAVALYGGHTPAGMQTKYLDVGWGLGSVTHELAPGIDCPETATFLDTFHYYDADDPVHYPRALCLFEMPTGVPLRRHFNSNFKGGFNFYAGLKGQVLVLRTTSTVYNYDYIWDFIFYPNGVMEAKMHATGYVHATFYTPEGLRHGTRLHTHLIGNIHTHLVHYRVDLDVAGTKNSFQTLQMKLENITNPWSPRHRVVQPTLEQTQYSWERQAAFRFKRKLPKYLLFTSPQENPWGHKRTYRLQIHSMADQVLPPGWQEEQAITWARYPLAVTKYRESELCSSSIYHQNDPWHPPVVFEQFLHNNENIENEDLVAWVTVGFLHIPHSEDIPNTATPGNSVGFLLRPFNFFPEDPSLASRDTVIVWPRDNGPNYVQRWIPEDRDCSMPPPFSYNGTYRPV
As to the kind of experiment: Activity on recombinant human DAO, Amplex Red method, 1 mM putrescine substrate. The settings on record: recombinant human DAO, read-out: Inhibitory Activity (IC50, nM) DAO. An outline of the steps:
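Inhibition of recombinant human DAO (diamine oxidase, R&D systems) was assessed with the Amplex Red Hydrogen Peroxide Assay Kit. Hydrogen peroxide produced from 1 mM putrescine was detected through an HRP-coupled reaction that converts Amplex Red into fluorescent resorufin, read at 544 nm excitation and 590 nm emission. IC50 values came from four-parameter logistic fits in GraphPad Prism.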

Assay [3] concerns the target T4, recombinant human MAO-B (monoamine oxidase-B) (Homo sapiens, UniProt P27338).
T4 construct: purchased Sigma-Aldrich
T4 sequence (P27338 1-520): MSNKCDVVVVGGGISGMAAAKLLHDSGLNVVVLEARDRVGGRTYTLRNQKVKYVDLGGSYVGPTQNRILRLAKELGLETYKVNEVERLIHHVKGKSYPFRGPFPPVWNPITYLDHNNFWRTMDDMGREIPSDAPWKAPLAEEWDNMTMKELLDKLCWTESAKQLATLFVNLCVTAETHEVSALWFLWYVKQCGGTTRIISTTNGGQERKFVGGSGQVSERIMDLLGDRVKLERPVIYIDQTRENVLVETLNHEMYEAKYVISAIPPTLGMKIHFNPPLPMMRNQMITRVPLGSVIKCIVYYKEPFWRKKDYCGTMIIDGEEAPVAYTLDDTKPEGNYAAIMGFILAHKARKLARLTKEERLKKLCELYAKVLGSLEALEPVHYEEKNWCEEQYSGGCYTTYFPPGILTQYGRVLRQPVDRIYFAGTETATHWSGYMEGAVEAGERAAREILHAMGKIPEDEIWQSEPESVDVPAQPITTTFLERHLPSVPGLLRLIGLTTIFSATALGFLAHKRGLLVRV
As to the kind of experiment: Activity on recombinant human MAO-B, Amplex Red method, 1 mM benzylamine substrate. The conditions noted are these: read-out: Inhibitory Activity (IC50, nM) MAO-B. The gist of the method:
as §1

Setting [4] is: 1 mM putrescine, * = between 10 and 100 nM, ** = between 300 and 1000 nM.

Turning to `Cc1cc(-c2ccc(-c3noc(C4CC4)n3)cc2)cnc1-n1cnn(C/C(=C/F)CN)c1=O` [Example 141, 2-[(2E)-2-(aminomethyl)-3-fluoroprop-2-en-1-yl]-4-{5-[4-(5-cyclopropyl-1,2,4-oxadiazol-3-yl)phenyl]-3-methylpyridin-2-yl}-2,4-dihydro-3H-1,2,4-triazol-3-one hydrochloride], the IC50 (as a rule, the point on the concentration scale where inhibition reaches its midpoint) in assay [1] (0.5 mM tyramine) was greater than 100000 nM; at recombinant human VAP-1 (30 min preincubation at 37° C.), 0.88 nM; in assay [2] (setting [4]) it was 110 nM; in assay [3] (1 mM benzylamine), 7090 nM.

In the case of `Cc1cc(-n2cnn(C/C(=C/F)CN)c2=O)ncc1-c1ccc2c(c1)OCO2` [Example 159, 2-[(2E)-2-(aminomethyl)-3-fluoroprop-2-en-1-yl]-4-[5-(1,3-benzodioxol-5-yl)-4-methylpyridin-2-yl]-2,4-dihydro-3H-1,2,4-triazol-3-one], the IC50 in assay [1] (0.5 mM tyramine substrate) is 1510 nM; at recombinant human VAP-1 it was 0.21 nM; in assay [2] (1 mM putrescine substrate), 1.8 nM; in assay [3] (1 mM benzylamine substrate), 74 nM.

In the case of `NC/C(=C\F)Cn1ncn(-c2cnc(Br)cn2)c1=O` [Example 38, 2-[(2E)-2-(aminomethyl)-3-fluoroprop-2-en-1-yl]-4-(5-bromopyrazin-2-yl)-2,4-dihydro-3H-1,2,4-triazol-3-one], the IC50 in assay [1] (0.5 mM tyramine) is 19600 nM; on recombinant human VAP-1 (30 min preincubation at 37° C.), 4.4 nM; in assay [2] (setting [4]), less than 100 nM; in assay [3] (1 mM benzylamine), 112 nM.

Take `NC/C(=C\F)Cn1ncn(-c2cccc(-c3ccc(-c4ncon4)cc3)c2)c1=O` [Example 61, 2-[(2E)-2-(aminomethyl)-3-fluoroprop-2-en-1-yl]-4-[4′-(1,2,4-oxadiazol-3-yl)biphenyl-3-yl]-2,4-dihydro-3H-1,2,4-triazol-3-one]: the IC50 in assay [1] (0.5 mM tyramine) was 62000 nM; on recombinant human VAP-1 (30 min preincubation at 37° C.) it was 0.65 nM; in assay [2] (setting [4]), less than 100 nM; in assay [3] (1 mM benzylamine), 998 nM.

`NC/C(=C\F)Cn1ncn(-c2cccc(C#Cc3ccc4c(n3)OCCN4)n2)c1=O` [Example 253, 2-[(E)-2-(aminomethyl)-3-fluoro-allyl]-4-[6-[2-(2,3-dihydro-1H-pyrido[2,3-b][1,4]oxazin-6-yl)ethynyl]-2-pyridyl]-1,2,4-triazol-3-one]: the IC50 in assay [1] (0.5 mM tyramine substrate) is greater than 100000 nM; on recombinant human VAP-1 it was 0.5 nM; in assay [2] (1 mM putrescine substrate), 34 nM; in assay [3] (1 mM benzylamine substrate) it was greater than 10000 nM.

Consider `NC/C(=C\F)Cn1ncn(-c2ncc(Br)cc2F)c1=O` [Example 36, 2-[(2E)-2-(aminomethyl)-3-fluoroprop-2-en-1-yl]-4-(5-bromo-3-fluoropyridin-2-yl)-2,4-dihydro-3H-1,2,4-triazol-3-one hydrochloride], for which the IC50 in assay [1] (0.5 mM tyramine) is greater than 100000 nM; on recombinant human VAP-1 (30 min preincubation at 37° C.), 1.2 nM; in assay [2] (setting [4]), 23 nM; in assay [3] (1 mM benzylamine), 3350 nM.

`Cc1cc(-n2cnn(C/C(=C/F)CN)c2=O)ncc1-c1ccc2cn[nH]c2c1` [Example 160, 2-[(2E)-2-(aminomethyl)-3-fluoroprop-2-en-1-yl]-4-[5-(1H-indazol-6-yl)-4-methylpyridin-2-yl]-2,4-dihydro-3H-1,2,4-triazol-3-one]: the IC50 in assay [1] (0.5 mM tyramine substrate) is 46200 nM; at recombinant human VAP-1, 0.37 nM; in assay [2] (1 mM putrescine substrate), less than 100 nM; in assay [3] (1 mM benzylamine substrate), 137 nM.

In the case of `NC/C(=C\F)Cn1ncn(-c2cc(F)c(Br)cc2F)c1=O` [Example 23, 2-[(2E)-2-(aminomethyl)-3-fluoroprop-2-en-1-yl]-4-(4-bromo-2,5-difluorophenyl)-2,4-dihydro-3H-1,2,4-triazol-3-one hydrochloride], the IC50 in assay [1] (0.5 mM tyramine) is 5200 nM; on recombinant human VAP-1 (30 min preincubation at 37° C.) it was 2.2 nM; in assay [2] (setting [4]) it was 32 nM; in assay [3] (1 mM benzylamine), 142 nM.

`Cc1cc(-c2ccc(-c3ncon3)cc2)cnc1-n1cnn(C/C(=C/F)CN)c1=O` [Example 139, 2-[(2E)-2-(aminomethyl)-3-fluoroprop-2-en-1-yl]-4-{3-methyl-5-[4-(1,2,4-oxadiazol-3-yl)phenyl]pyridin-2-yl}-2,4-dihydro-3H-1,2,4-triazol-3-one]: the IC50 in assay [1] (0.5 mM tyramine) is greater than 100000 nM; on recombinant human VAP-1 (30 min preincubation at 37° C.), 0.53 nM; in assay [2] (setting [4]) it was 370 nM; in assay [3] (1 mM benzylamine), 394 nM.

In the case of `CC(=O)N1CCN(c2ccc(-c3cccc(-n4cnn(C/C(=C/F)CN)c4=O)c3)cc2)CC1` [Example 72, 4-[4′-(4-acetylpiperazine-1-yl)biphenyl-3-yl]-2-[(2E)-2-(aminomethyl)-3-fluoroprop-2-en-1-yl]-2,4-dihydro-3H-1,2,4-triazol-3-one hydrochloride], the IC50 in assay [1] (0.5 mM tyramine) turned out to be 4890 nM; at recombinant human VAP-1 (30 min preincubation at 37° C.) it was 1.1 nM; in assay [2] (setting [4]), 59 nM; in assay [3] (1 mM benzylamine), 1460 nM.
